Measurements: PubChem BioAssay (NCI)
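How tested: cells in 96-well plates exposed to compound for 48 hours at five concentrations. GI50 is the concentration that inhibits growth by half. TGI marks complete inhibition of growth.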

Key:
Experiment in all cases: NCI tumour cell line growth inhibition, 48 h
[1] = test system: NCI-H23 lung
[2] = test system: DU-145 prostate
[3] = test system: SN12C renal
[4] = test system: HS 578T breast
[5] = test system: M14 melanoma
[6] = test system: SW-620 colon
[7] = test system: RPMI-8226 leukemia
[8] = test system: EKVX NSCLC
[9] = test system: UACC-257 melanoma
[10] = test system: PC-3 prostate
[11] = test system: MDA-MB-435
[12] = test system: SK-MEL-2 melanoma
[13] = test system: OVCAR-8 ovarian
[14] = test system: COLO 205 colon
[15] = test system: NCI/ADR-RES ovarian
[16] = test system: MDA-MB-231 breast
[17] = test system: UACC-62 melanoma
[18] = test system: BT-549 breast
[19] = test system: OVCAR-4 ovarian
[20] = test system: HL-60(TB) leukemia
[21] = test system: SR leukemia
[22] = test system: NCI-H460 lung
[23] = test system: UO-31 renal
[24] = test system: TK-10 renal
[25] = test system: HT29 colon
[26] = test system: HCC-2998 colon
[27] = test system: OVCAR-5 ovarian
[28] = test system: SNB-19 CNS
[29] = test system: A549 NSCLC
[30] = test system: U251 CNS
[31] = test system: SF-268 CNS
[32] = test system: SK-MEL-5 melanoma
[33] = test system: NCI-H226 lung
[34] = test system: MOLT-4 leukemia
[35] = test system: MCF7 breast
[36] = test system: CAKI-1 renal
[37] = test system: HCT-116 colon
[38] = test system: NCI-H522 lung
[39] = test system: SK-MEL-28 melanoma
[40] = test system: HCT-15 colon
[41] = test system: T-47D breast
[42] = test system: RXF 393 renal
[43] = test system: IGROV1 ovarian
[44] = test system: SK-OV-3 ovarian
[45] = test system: KM12 colon
[46] = test system: A498 renal
[47] = test system: HOP-92 NSCLC
[48] = test system: K-562 leukemia
[49] = test system: OVCAR-3 ovarian
[50] = test system: ACHN renal
[51] = test system: SNB-75 CNS
[52] = test system: SF-295 CNS
[53] = test system: MALME-3M melanoma
[54] = test system: HOP-62 NSCLC
[55] = test system: 786-0 renal
[56] = test system: LOX IMVI melanoma
[57] = test system: CCRF-CEM leukemia
[58] = test system: SF-539 CNS

CCN(CC)CCOc1ccc(/C=C2\CC3C4CC=C5C[C@@H](N6CCCC6)CC[C@]5(C)C4CC[C@]3(C)[C@H]2O)cc1OC (some centres undefined)
GI50 [1]: 8.87 µM
TGI [1]: 25.1 µM
GI50 [2]: 4.62 µM
TGI [2]: 34.7 µM
GI50 [3]: 20.6 µM
TGI [3]: > 63.5 µM
GI50 [4]: 0.76 µM
TGI [4]: 13.6 µM
GI50 [5]: 1.92 µM
TGI [5]: 4.23 µM
GI50 [6]: 0.624 µM
TGI [6]: 7.38 µM
GI50 [7]: 2.24 µM
TGI [7]: 6.34 µM
GI50 [8]: 12.9 µM
TGI [8]: > 77.4 µM
GI50 [9]: 6.82 µM
TGI [9]: 14.9 µM
GI50 [10]: 4.66 µM
TGI [10]: 45.3 µM
GI50 [11]: 3.86 µM
TGI [11]: 14.5 µM
GI50 [12]: 9.64 µM
TGI [12]: > 100 µM
GI50 [13]: 5.16 µM
TGI [13]: > 40.8 µM
GI50 [14]: 5.4 µM
TGI [14]: 23 µM
GI50 [15]: 13.3 µM
TGI [15]: 47.5 µM
GI50 [16]: 2.96 µM
TGI [16]: 7.58 µM
GI50 [17]: 16.6 µM
TGI [17]: 34.6 µM
GI50 [18]: 4.7 µM
TGI [18]: 19.3 µM
GI50 [19]: 24 µM
TGI [19]: > 82.3 µM
GI50 [20]: 13.8 µM
TGI [20]: 35.2 µM
GI50 [21]: 0.224 µM
TGI [21]: 0.648 µM
GI50 [22]: 14.2 µM
TGI [22]: 65.7 µM
GI50 [23]: 4.29 µM
TGI [23]: 16.9 µM
GI50 [24]: 9.64 µM
TGI [24]: 37.2 µM
GI50 [25]: 2.39 µM
TGI [25]: > 100 µM
GI50 [26]: 1.71 µM
TGI [26]: 4.79 µM
GI50 [27]: 24 µM
TGI [27]: > 72.8 µM
GI50 [28]: 6.2 µM
TGI [28]: > 63.5 µM
GI50 [29]: 7.91 µM
TGI [29]: > 100 µM
GI50 [30]: 3.08 µM
TGI [30]: 20.5 µM
GI50 [31]: 11.8 µM
TGI [31]: > 76.6 µM
GI50 [32]: 0.336 µM
TGI [32]: 1.95 µM
GI50 [33]: 19.3 µM
TGI [33]: 45.2 µM
GI50 [34]: 2.2 µM
TGI [34]: > 21.6 µM
GI50 [35]: 4.45 µM
TGI [35]: > 59 µM
GI50 [36]: 16.3 µM
TGI [36]: 46.1 µM
GI50 [37]: 1.38 µM
TGI [37]: 11 µM
GI50 [38]: 9.06 µM
TGI [38]: > 30.2 µM
GI50 [39]: 20.5 µM
TGI [39]: > 65.7 µM
GI50 [40]: 3.45 µM
TGI [40]: 22.4 µM
GI50 [41]: 7.75 µM
TGI [41]: 22.6 µM
GI50 [42]: 3.79 µM
TGI [42]: 17.8 µM
GI50 [43]: 8.91 µM
TGI [43]: > 27.6 µM
GI50 [44]: 27.2 µM
TGI [44]: > 70.8 µM
GI50 [45]: 2.67 µM
TGI [45]: 11.9 µM
GI50 [46]: 0.0502 µM
TGI [46]: 1.46 µM
GI50 [47]: 8.14 µM
TGI [47]: 32.7 µM
GI50 [48]: 4.49 µM
TGI [48]: > 100 µM
GI50 [49]: 5.06 µM
TGI [49]: 13.6 µM
GI50 [50]: 5.94 µM
TGI [50]: 26.2 µM
GI50 [51]: 14.6 µM
TGI [51]: > 69.4 µM
GI50 [52]: 3.86 µM
TGI [52]: 13.5 µM
GI50 [53]: 3.68 µM
TGI [53]: 9.82 µM
GI50 [54]: 5.82 µM
TGI [54]: 15.3 µM
GI50 [55]: 2.64 µM
TGI [55]: 10.1 µM
GI50 [56]: 1.92 µM
TGI [56]: 5.28 µM
GI50 [57]: 1.14 µM
TGI [57]: 4.77 µM
GI50 [58]: 1.91 µM
TGI [58]: 3.93 µM

C=C1C(=O)C23CC1C[C@H](OC(C)=O)C2C1(C)C(OC(C)=O)C[C@H](O)C(C)(C)[C@H]1C(O)[C@@H]3OC(C)=O (some centres undefined)
TGI [1]: 26.8 µM
TGI [2]: 33.2 µM
TGI [3]: 20.7 µM
TGI [4]: 41.9 µM
TGI [5]: 18.7 µM
TGI [6]: 6.14 µM
TGI [7]: 16.4 µM
TGI [8]: 29.1 µM
TGI [9]: 24.5 µM
TGI [10]: 26.5 µM
TGI [11]: 20.6 µM
TGI [12]: 29.7 µM
TGI [13]: 22 µM
TGI [14]: 14.5 µM
TGI [15]: > 100 µM
TGI [16]: 18.6 µM
TGI [17]: 26.5 µM
TGI [18]: 13.5 µM
TGI [19]: 25.7 µM
TGI [20]: 6.11 µM
TGI [21]: 27.4 µM
TGI [22]: > 60 µM
TGI [23]: 31.2 µM
TGI [24]: 17 µM
TGI [25]: 30 µM
TGI [26]: 36.9 µM
TGI [27]: 28.8 µM
TGI [28]: 44.3 µM
TGI [29]: 48.8 µM
TGI [30]: 28.9 µM
TGI [31]: 28.5 µM
TGI [32]: 27.9 µM
TGI [33]: 45 µM
TGI [34]: 8.64 µM
TGI [35]: 19.4 µM
TGI [36]: 30.7 µM
TGI [37]: 16.2 µM
TGI [38]: 3.34 µM
TGI [39]: 24.4 µM
TGI [40]: 25.7 µM
TGI [41]: 24.8 µM
TGI [42]: 19.9 µM
TGI [43]: 30.6 µM
TGI [44]: 56.5 µM
TGI [45]: > 54.5 µM
TGI [46]: 28.4 µM
TGI [47]: 24.8 µM
TGI [48]: 10.9 µM
TGI [49]: 19.1 µM
TGI [50]: 24.3 µM
TGI [51]: 36.3 µM
TGI [52]: > 57.6 µM
TGI [53]: 19.9 µM
TGI [54]: 33.8 µM
TGI [55]: 20.7 µM
TGI [56]: 30.3 µM
TGI [57]: 8.25 µM
TGI [58]: 7.54 µM
